The text below walks through data of US20250073209A1, “COVALENT TARGETING OF RhoA FOR CANCER THERAPY” (The University of Hong Kong, priority 2023, published 2025).

The structures appear in SMILES notation. pIC50: −log10 of the molar value.

Series [1] deals with T1, RhoA (Homo sapiens, UniProt P61586). Nature of the series: Fluorescence assay of MANT-GTP binding onto RhoA. Type of series: biochemical. The conditions noted are these: pre-incubation of RhoA with CL16. The procedure:
FIGS. 10A and 10B are graphs showing GTP binding assay of RhoA (0.75 μg) with CL16 (FIG. 10A) and GTP-MANT (5.6 μM) (FIG. 10B) in the buffer solution (20 mM Tris, 50 mM NaCl, 10 mM MgCl2, pH 7.5).

For series [2], the system named is RhoA. Nature of the series: FRET-RhoA biosensor imaging, serum re-stimulation. Type of series: cell-based, human. To be noted: transfected cells, serum-free 24 h, 10% FBS 10 min. The procedure: To further validate the inhibitory effects of CL16 on RhoA, HCT116 and HT29 cells were transfected with a FRET-RhoA biosensor, where cells with elevated RhoA activity would show a higher FRET/mTFP1. Specifically, HCT116 cells transfected with FRET-RhoA biosensor were treated with CL16 or solvent in serum-free medium for 24 h, washed with PBS, re-stimulated with 10% FBS for 10 min, washed, and then imaged in HBSS by confocal fluorescence microscopy. […] In addition, HCT116 cells were serum-starved and treated with CL16 or Rhosin for 24 h, followed by 10% FBS re-stimulation for 10 min. The cells were then washed and fixed by 4% paraformaldehyde, washed with PBS and stained with Alexa Fluor 488-Phalloidin in PBS (1:20, v/v) at room temperature for 15 min. The cells were washed with PBS, incubated with Hoechst (8.2 μM) in PBS for 15 min, washed and then imaged in PBS by confocal fluorescence microscopy. […] Since RhoA regulates cytoskeletal dynamics and RhoA activation can induce the formation of contractile F-actin, the reduction of F-actin fibers by CL16 treatment supports its inhibitory roles on RhoA signaling.

For the next series, the system named is HCT116 cells. Description: Apoptosis assay with Caspase-3/7 Green Detection Reagent. Type of series: cell-based, human. To be noted: HCT116, 24 h. The procedure:
HCT116 cells were seeded onto a poly-D-lysine coated Ibidi 8-well chamber slide (20,000 cells) and cultured overnight in complete medium at 37° C. with 5% CO2. The cells were treated with DMSO control, Rhosin or CL16 at the indicated concentration along with 5 μM of CellEvent™ Caspase- 3/7 green in serum-free medium for 24 h. Prior to imaging, the medium was exchanged for Hanks' Balanced Salt Solution (HBSS). Confocal fluorescence microscopy was performed using a Zeiss laser scanning microscope 880 with a 20× water-immersion objective lens and ZEN 2.3 (Black Version) software (Carl Zeiss). CellEvent™ Caspase- 3/7 green was excited by a 488 nm diode laser and emission was collected on a META detector between 490 and 525 nm. Image analysis was performed on ImageJ where the number of cells expressing fluorescence within the field was counted against the total number of cells to report the percentage of apoptotic cells. The average percentage was calculated from 3 separate images from the same well.
The effects of CL16 treatment on cell cycle checkpoint proteins were investigated with immunoblotting of the cell cycle checkpoint proteins in SW620 and HT29 cells after CL16 treatment for 24 h. […] Caspase- 3/7 Green Detection Reagent was used to study apoptosis in HCT116 cells treated with Rhosin by confocal fluorescence imaging. […]

For another series, the system named is CRC xenografts. Description: H&E and immunohistochemistry on tissues of nude mice with CRC xenografts. Type of series: in vivo, mouse. The source says:
FIGS. 14A and 14B are graphs showing immunohistochemistry staining scores for the images of H&E and immunohistochemistry staining of Ki67 (FIG. 14A) and cleaved caspase-3 staining (FIG. 14B) of tumor tissues from the vehicle- or CL16-treated mice. FIGS. 14C and 14D are graphs showing immunohistochemistry staining scores for the images of H&E, Ki67 (FIG. 14C) and cleaved caspase-3 (FIG. 14D) staining of tumor tissues from the vehicle- or CL16-treated mice with HT29 xenografts.
After confirming the anticancer properties of CL16 on CRC cells and RhoA Cys16 as its primary molecular target, the anticancer effect of CL16 in vivo was studied.

Series [3] has as its target T1, RhoA. Description: Gel-based competitive ABPP (iodoacetamide-rhodamine) on purified RhoA. Further details: purchased ab101594. The conditions noted are these: competition with IA-Rh, dose-dependent experiments; read-out: IC50 of the competitive binding / in vitro RhoA binding. Here is the method:
Recombinant human RhoA (0.1 μg; ab101594) was pretreated with cysteine-reactive compounds or DMSO for 1 hour at room temperature, followed by incubation with iodoacetamide-rhodamine (IA-Rh; 1 μM) for 1 hour at room temperature. The reaction was then quenched by boiling in sampling buffer. Samples were subjected to SDS-PAGE to separate proteins bands. In-gel fluorescence intensity was measured with a Chemidoc using setting for Rhodamine. Gel was subsequently stained with silver stain (Pierce) for visualization of protein content and covalent modification. Band intensity was quantified using ImageJ.
CL16 was identified for its strong and specific binding with RhoA in covalent ligand screening experiment by ABPP. ABPP is known as a powerful platform for covalent ligand screening, particularly for the identification of lead compounds targeting new hotspots for therapy. Competitive gel-based activity-based protein profiling (ABPP) experiment was performed on purified RhoA protein for screening its interactions with a library of cysteine-reactive covalent ligands with acrylamide or chloroacetamide warheads. RhoA protein for the first screening and on Rac1 and Cdc42 for the second screening to identify lead compounds with specific binding onto RhoA Cys16. […] The reaction mixture was then resolved by SDS-PAGE and in-gel fluorescence was imaged (FIG. 1A). […]

T1 sequence (P61586 whole entry): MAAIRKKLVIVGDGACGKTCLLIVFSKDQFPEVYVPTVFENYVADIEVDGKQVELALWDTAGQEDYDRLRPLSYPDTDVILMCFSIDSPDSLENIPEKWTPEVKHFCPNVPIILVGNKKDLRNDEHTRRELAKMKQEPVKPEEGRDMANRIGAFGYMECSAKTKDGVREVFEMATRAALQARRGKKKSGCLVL

As for `O=C(CCl)N1N=C(c2cc3ccccc3o2)CC1c1ccco1` (stereo not shown) [CL16], at RhoA [1], the “MANT-GTP binding onto RhoA (increase in fluorescence intensity)” value is reported as “significantly slowed down the increase in fluorescence intensity”. For the same compound, the “FRET/mTFP1 upon serum re-stimulation” value in the series with RhoA [2] is listed as “abolishment of the increase in FRET/mTFP1”. In addition, in the series with HCT116 cells, the cell apoptosis result is “mediated cell apoptosis”. In addition, the “H&E staining of major organs” value in the series on CRC xenografts (CL16-treated mice) is reported as “no observable damages on major organs”. Further, the “Ki67 immunohistochemistry on tumor tissues” value in the series with CRC xenografts (CL16-treated vs solvent) is “reduction in Ki67”. Also, the “cleaved caspase-3 level in tumor tissues” value in the series with CRC xenografts (CL16-treated vs vehicle) is “elevated cleaved caspase-3 level”. On RhoA [3], the pIC50 is 6.36.
